The test system of one data set is CC(O)C(=O)O. The experiment in a line: cells, lysate or membranes.
Data set [1] concerns the target MCT1 (monocarboxylate transporter 1) (Rattus norvegicus, UniProt P53987). Nature of the data set: inhibition of L-[…]lactate uptake in Xenopus oocytes. The format is cell-based. To be noted: read-out: Inhibitor-insensitive component (%).
Data set [2] has as its target T1, MCT2 (monocarboxylate transporter 2) (Rattus norvegicus, UniProt Q63344).
T1 sequence (Q63344 1-489): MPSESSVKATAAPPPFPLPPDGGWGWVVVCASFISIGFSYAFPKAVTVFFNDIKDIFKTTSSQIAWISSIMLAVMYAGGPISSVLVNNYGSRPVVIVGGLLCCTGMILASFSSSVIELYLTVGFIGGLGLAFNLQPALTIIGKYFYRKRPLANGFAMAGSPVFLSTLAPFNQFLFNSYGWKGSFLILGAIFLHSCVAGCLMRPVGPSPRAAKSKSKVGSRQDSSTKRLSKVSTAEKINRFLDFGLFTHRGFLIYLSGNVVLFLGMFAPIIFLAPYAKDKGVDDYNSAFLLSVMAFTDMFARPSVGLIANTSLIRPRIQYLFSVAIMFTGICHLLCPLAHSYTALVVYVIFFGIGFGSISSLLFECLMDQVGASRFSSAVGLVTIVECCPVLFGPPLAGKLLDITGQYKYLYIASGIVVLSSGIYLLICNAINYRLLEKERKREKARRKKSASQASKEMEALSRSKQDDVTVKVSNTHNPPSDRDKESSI
The description is as above. The format is cell-based. The following applies: read-out: % inhibition at 10 nM.

Sequence of MCT1 (monocarboxylate transporter 1) (P53987 whole entry): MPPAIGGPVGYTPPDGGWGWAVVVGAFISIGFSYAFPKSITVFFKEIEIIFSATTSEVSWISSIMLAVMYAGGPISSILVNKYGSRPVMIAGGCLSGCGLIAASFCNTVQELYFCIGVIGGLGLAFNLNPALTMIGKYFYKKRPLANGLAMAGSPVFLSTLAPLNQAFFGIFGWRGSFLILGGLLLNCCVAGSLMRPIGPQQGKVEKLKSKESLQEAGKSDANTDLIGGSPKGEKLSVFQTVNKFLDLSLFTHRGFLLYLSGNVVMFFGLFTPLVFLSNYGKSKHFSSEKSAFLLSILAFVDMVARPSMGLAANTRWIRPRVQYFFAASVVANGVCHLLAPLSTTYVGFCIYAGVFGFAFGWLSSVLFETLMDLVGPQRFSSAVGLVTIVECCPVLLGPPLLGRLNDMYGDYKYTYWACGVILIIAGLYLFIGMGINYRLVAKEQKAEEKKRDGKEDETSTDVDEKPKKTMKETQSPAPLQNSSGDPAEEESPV

Broadly, the Km is the substrate concentration at which the rate is half of its maximum. With “MCT1 (monocarboxylate transporter 1) (Rattus norvegicus)”, the Km in the data set on CC(O)C(=O)O amounted to 4.4 ± 1.5 mM.

The inhibition is how much of the control response was suppressed. Regarding `Cc1n[nH]c(C)c1Cc1sc2c(c1C(=O)N1C[C@H](O)CO1)c(=O)n(C)c(=O)n2CC(C)C` [AR-C155858], the activity at 0.1 µM in data set [1] was determined as 1.9 ± 0.6%. Moreover, the inhibition at 0.01 µM in data set [2] was approximately 70%.

The record behind these values is publication PMC2947196 (2010).
